PMC6695355, “Alanine Scanning Studies of the Antimicrobial Peptide Aurein 1.2” (Probiotics and Antimicrobial Proteins, 2018)
≈ marks a conversion by molar mass, not a printed value. Where a SMILES comes first, the peptide text is derived from it.

Assays:
S. aureus ATCC 25923 = type: cell-based, Staphylococcus aureus; details: ATCC 25923, 18 h
Method in brief: (§1)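 Broth microdilution (CLSI), 1–512 μg/mL, 37 °C; S. aureus 0.5 × 10^5 CFU/mL MHB 18 h; C. albicans 2 × 10^3 CFU/mL RPMI-1640 24 h; MIC = no visible growth. Biofilm: 24 h preformed, PBS-washed, compound 24 h (MBEC) or compound + inoculum 24 h (MBIC); resazurin 1 h, cut-off ≤10%.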

[1] = system: S. aureus ATCC 25923 biofilm formation; type: cell-based, Staphylococcus aureus; details: ATCC 25923, 24 h
Method in brief: as §1

[2] = system: S. aureus ATCC 25923 biofilm; type: cell-based, Staphylococcus aureus; details: ATCC 25923, 24 h
Method in brief: as §1

E. coli ATCC 25922 = type: cell-based, Escherichia coli; details: ATCC 25922, 18 h
Method in brief: (§2)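 Broth microdilution per CLSI, 1–512 μg/mL; bacteria 0.5 × 10^5 CFU/mL in MHB, 37 °C 18 h; C. albicans 2 × 10^3 CFU/mL in RPMI-1640, 24 h; MIC = lowest concentration visibly inhibiting growth. MBEC: 24-h biofilms, PBS-rinsed, compound 24 h at 37 °C, resazurin read after 1 h. MBIC: compound with inoculum 24 h, then resazurin 1 h; cut-off ≤10% reduction versus controls.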

[3] = system: E. coli ATCC 25922 biofilm; type: cell-based, Escherichia coli; details: ATCC 25922, 24 h
Method in brief: as §2

[4] = system: E. coli ATCC 25922 biofilm formation; type: cell-based, Escherichia coli; details: ATCC 25922, 24 h
Method in brief: as §2

[5] = system: human red blood cells (RBCs); assay: Hemolysis assay; type: cell-based; details: red cells of human, 1 h
Method in brief: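 Fresh EDTA-anticoagulated human erythrocytes were PBS-washed and used at 4% (v/v) with peptide at 1–256 μg/mL in PBS for 1 h at 37 °C. Hemoglobin release in the supernatant was read at 540 nm. PBS set 0% and 1% Triton X-100 set 100% hemolysis; run in triplicate.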

in vitro = in vitro ADME; details: bovine, serum
Method in brief: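 Peptides incubated in 25% (v/v) fetal bovine serum in PBS at 37 °C, quenched with ice-cold acetonitrile at t0 and 6 h. Intact peptide quantified by RP-HPLC-MS in selected ion recording mode; % remaining = peak area at 6 h / peak area at t0.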

[6] = system: P. aeruginosa ATCC 9027 biofilm formation; type: cell-based, Pseudomonas aeruginosa; details: ATCC 9027, 24 h
Method in brief: as §2

P. aeruginosa ATCC 9027 = type: cell-based, Pseudomonas aeruginosa; details: ATCC 9027, 18 h
Method in brief: as §2

[7] = system: P. aeruginosa ATCC 9027 biofilm; type: cell-based, Pseudomonas aeruginosa; details: ATCC 9027, 24 h
Method in brief: as §2

E. faecalis PCM 2673 = type: cell-based, Enterococcus faecalis; details: PCM 2673, 18 h
Method in brief: as §2

[8] = system: E. faecalis PCM 2673 biofilm; type: cell-based, Enterococcus faecalis; details: 24 h
Method in brief: as §2

[9] = system: E. faecalis PCM 2673 biofilm formation; type: cell-based, Enterococcus faecalis; details: 24 h
Method in brief: as §2

C. albicans ATCC 10231 = type: cell-based, Candida albicans; details: ATCC 10231, 24 h
Method in brief: as §1

[10] = system: C. albicans ATCC 10231 biofilm formation; type: cell-based, Candida albicans; details: ATCC 10231, 24 h
Method in brief: as §1

[11] = system: C. albicans ATCC 10231 biofilm; type: cell-based, Candida albicans; details: ATCC 10231, 24 h
Method in brief: as §1

[12] = type: physicochemical; details: pH 7.4

Structure (SMILES)	MIC, S. aureus ATCC 25923 (S. aureus ATCC 25923) [µg/mL]	MBIC, S. aureus ATCC 25923 [1] [µg/mL]	MBEC, S. aureus ATCC 25923 [2] [µg/mL]	MIC, E. coli ATCC 25922 (E. coli ATCC 25922) [µg/mL]	MBEC, E. coli ATCC 25922 [3] [µg/mL]	MBIC, E. coli ATCC 25922 [4] [µg/mL]	Percentage of hemolysis at 1 μg/mL [5] [%]	Percentage of hemolysis at 2 μg/mL [5] [%]	Percentage of hemolysis at 4 μg/mL [5] [%]	Percentage of hemolysis at 8 μg/mL [5] [%]	Percentage of hemolysis at 16 μg/mL [5] [%]	Percentage of hemolysis at 32 μg/mL [5] [%]	Percentage of hemolysis at 64 μg/mL [5] [%]	Percentage of hemolysis at 128 μg/mL [5] [%]	Percentage of hemolysis at 256 μg/mL [5] [%]	remaining at 6 h, 0.125 mg/mL (in vitro) [%]	MBIC, P. aeruginosa ATCC 9027 [6] [µg/mL]	MBEC, P. aeruginosa ATCC 9027 [7] [µg/mL]	MIC, E. faecalis PCM 2673 (E. faecalis PCM 2673) [µg/mL]	MBEC, E. faecalis PCM 2673 [8] [µg/mL]	other results
CC[C@H](C)[C@H](NC(=O)[C@H](CCCCN)NC(=O)[C@H](C)NC(=O)[C@@H](NC(=O)[C@@H](NC(=O)[C@H](CC(=O)O)NC(=O)[C@H](Cc1ccccc1)NC(=O)[C@H](CC(C)C)NC(=O)CN)[C@@H](C)CC)[C@@H](C)CC)C(=O)N[C@@H](C)C(=O)N[C@@H](CCC(=O)O)C(=O)N[C@@H](CO)C(=O)N[C@@H](Cc1ccccc1)C(N)=O [Peptide K7A] (H-GLFDIIAKIAESF-NH2)	> 512	> 512	> 512	> 512	> 512	64	0.2	0.1	0.0	0.0	0.1	3.4	0.7	3.0	4.6	59	> 512	> 512	512 (≈ 360 µM)	> 512	MIC, P. aeruginosa ATCC 9027 (P. aeruginosa ATCC 9027): > 512 µg/mL; MBIC, E. faecalis PCM 2673 [9]: > 512 µg/mL; MIC, C. albicans ATCC 10231 (C. albicans ATCC 10231): > 512 µg/mL; MBIC, C. albicans ATCC 10231 [10]: 4 µg/mL; MBEC, C. albicans ATCC 10231 [11]: > 512 µg/mL; Solubility in surfactant-free phosphate buffer [12]: poor solubility
CC[C@H](C)[C@H](NC(=O)[C@H](C)NC(=O)[C@H](CCCCN)NC(=O)[C@@H](NC(=O)[C@@H](NC(=O)[C@H](CC(=O)O)NC(=O)[C@H](Cc1ccccc1)NC(=O)[C@H](CC(C)C)NC(=O)CN)[C@@H](C)CC)[C@@H](C)CC)C(=O)N[C@@H](C)C(=O)N[C@@H](CCC(=O)O)C(=O)N[C@@H](CO)C(=O)N[C@@H](Cc1ccccc1)C(N)=O [Peptide K8A] (H-GLFDIIKAIAESF-NH2)	> 512	> 512	> 512	128 (≈ 90 µM)	> 512	32	0.1	0.0	0.0	0.0	0.0	5.5	16.1	49.3	89.6	36	> 512	> 512	64 (≈ 45 µM)	> 512	MIC, P. aeruginosa ATCC 9027 (P. aeruginosa ATCC 9027): > 512 µg/mL; MBIC, E. faecalis PCM 2673 [9]: 128 µg/mL; MIC, C. albicans ATCC 10231 (C. albicans ATCC 10231): 64 µg/mL (≈ 45 µM); MBIC, C. albicans ATCC 10231 [10]: 4 µg/mL; MBEC, C. albicans ATCC 10231 [11]: > 512 µg/mL; Solubility in surfactant-free phosphate buffer [12]: poor solubility
CC[C@H](C)[C@H](NC(=O)[C@H](CCCCN)NC(=O)[C@H](CCCCN)NC(=O)[C@@H](NC(=O)[C@@H](NC(=O)[C@H](CC(=O)O)NC(=O)[C@H](Cc1ccccc1)NC(=O)[C@H](CC(C)C)NC(=O)CN)[C@@H](C)CC)[C@@H](C)CC)C(=O)N[C@@H](C)C(=O)N[C@@H](CCC(=O)O)C(=O)N[C@@H](C)C(=O)N[C@@H](Cc1ccccc1)C(N)=O [Peptide S12A] (H-GLFDIIKKIAEAF-NH2)	32 (≈ 21.9 µM)	32	> 512	64 (≈ 43.7 µM)	> 512	32	0.0	0.0	0.0	0.0	1.2	6.5	12.0	15.4	23.5	77	>512	> 512	64 (≈ 43.7 µM)	128	MBIC, E. faecalis PCM 2673 [9]: 128 µg/mL; MIC, C. albicans ATCC 10231 (C. albicans ATCC 10231): 32 µg/mL (≈ 21.9 µM); MBIC, C. albicans ATCC 10231 [10]: 2 µg/mL; MBEC, C. albicans ATCC 10231 [11]: 256 µg/mL; Solubility in surfactant-free phosphate buffer [12]: poor solubility
